# Measured values reported in patent US20250353864A1, “INDAZOLE CONTAINING MACROCYCLES AND THEIR USE” (BLOSSOMHILL THERAPEUTICS, INC., priority 2022, published 2025).
# Where two headings read alike, the source gives them in different places.
# Columns and labels:
# [1] = from C=Cc1nn(C2CCCCO2)c2ccc(-c3cnn(C)c3O[C@H](CC)CN(C)Cc3c(I)c(OCC)nn3CCO[Si](C)(C)C(C)(C)C)cc12; cc_pd bond; 15-membered ring; Pd(OAc)2/TBAC/NaHCO3; DMF; 97.8 mM; 80.0 °C; 1.0 h
# [2] = cc_pd bond
# [3] = target: CLK2 (Homo sapiens (Human), UniProt P49760); assay: Inhibition of CLK2 kinase activity evaluated at Nanosyn (ADP-Glo); assay type: biochemical; settings: ADP-Glo luminescence
# CLK2, sequence (P49760 whole entry, canonical isoform): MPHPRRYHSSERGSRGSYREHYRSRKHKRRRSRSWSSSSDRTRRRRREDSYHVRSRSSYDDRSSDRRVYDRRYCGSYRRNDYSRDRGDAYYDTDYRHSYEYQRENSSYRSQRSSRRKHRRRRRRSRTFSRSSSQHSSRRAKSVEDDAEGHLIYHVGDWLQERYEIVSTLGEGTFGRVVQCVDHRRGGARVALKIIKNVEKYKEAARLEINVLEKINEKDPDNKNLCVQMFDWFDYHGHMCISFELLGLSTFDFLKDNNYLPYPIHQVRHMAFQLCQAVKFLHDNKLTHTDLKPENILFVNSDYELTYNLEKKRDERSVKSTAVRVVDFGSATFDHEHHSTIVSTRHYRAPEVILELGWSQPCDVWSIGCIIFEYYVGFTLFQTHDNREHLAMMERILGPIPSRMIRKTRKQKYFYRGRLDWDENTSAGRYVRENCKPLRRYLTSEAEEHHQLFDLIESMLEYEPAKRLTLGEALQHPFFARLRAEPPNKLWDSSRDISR
# Method in brief: (§1)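 ADP-Glo luminescence (40 min depletion, 10 min detection) quantifies ADP from ATP-initiated phosphorylation of substrate by each CLK isoform in HEPES pH 7.5 buffer, 1% DMSO, assay-specific incubation. %-inhibition calculated against uninhibited and enzyme-free controls.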
# [4] = target: EGFR L858R/T790M/C797S mutant (Homo sapiens (Human), UniProt P00533, C797S/L858R/T790M); assay: HotSpot radiometric kinase assay, EGFR L858R/T790M/C797S mutant; assay type: biochemical; settings: 10 μM ATP
# EGFR L858R/T790M/C797S mutant, sequence (P00533 25-1210 T790M/C797S/L858R): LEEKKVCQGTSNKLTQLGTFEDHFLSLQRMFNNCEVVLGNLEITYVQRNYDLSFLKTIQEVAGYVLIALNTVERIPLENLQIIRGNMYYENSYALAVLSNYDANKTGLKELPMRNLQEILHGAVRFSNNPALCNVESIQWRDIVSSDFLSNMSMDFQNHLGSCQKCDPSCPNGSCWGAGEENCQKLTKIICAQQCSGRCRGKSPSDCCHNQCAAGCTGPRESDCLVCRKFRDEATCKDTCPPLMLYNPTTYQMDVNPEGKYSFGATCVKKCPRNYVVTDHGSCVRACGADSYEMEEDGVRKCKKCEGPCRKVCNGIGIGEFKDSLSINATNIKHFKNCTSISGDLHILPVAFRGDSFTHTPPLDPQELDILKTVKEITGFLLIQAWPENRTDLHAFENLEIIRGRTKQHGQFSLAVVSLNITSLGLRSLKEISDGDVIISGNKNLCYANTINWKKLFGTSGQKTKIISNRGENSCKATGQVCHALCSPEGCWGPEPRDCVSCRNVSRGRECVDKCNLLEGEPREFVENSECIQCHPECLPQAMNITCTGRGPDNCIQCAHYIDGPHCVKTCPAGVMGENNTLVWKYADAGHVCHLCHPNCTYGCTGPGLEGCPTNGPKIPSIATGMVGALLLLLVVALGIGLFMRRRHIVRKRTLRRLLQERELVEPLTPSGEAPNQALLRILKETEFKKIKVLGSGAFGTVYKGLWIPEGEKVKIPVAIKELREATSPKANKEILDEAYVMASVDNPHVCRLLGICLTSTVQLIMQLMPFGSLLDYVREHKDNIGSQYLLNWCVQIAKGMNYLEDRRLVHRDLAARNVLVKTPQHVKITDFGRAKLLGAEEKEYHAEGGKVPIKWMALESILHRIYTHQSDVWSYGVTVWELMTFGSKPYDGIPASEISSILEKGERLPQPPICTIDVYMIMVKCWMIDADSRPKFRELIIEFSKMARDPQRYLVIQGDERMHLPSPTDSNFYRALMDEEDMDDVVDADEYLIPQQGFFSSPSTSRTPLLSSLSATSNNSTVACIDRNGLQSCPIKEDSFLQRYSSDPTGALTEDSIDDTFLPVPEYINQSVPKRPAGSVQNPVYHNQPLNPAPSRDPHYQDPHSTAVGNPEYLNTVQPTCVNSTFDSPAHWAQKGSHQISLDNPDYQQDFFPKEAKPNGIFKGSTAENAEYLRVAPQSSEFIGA
# Method in brief: (§2)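 Compounds were preincubated ~20 min with kinase/substrate in pH 7.5 Hepes buffer (MgCl2, EGTA, Brij35, BSA, Na3VO4, DTT, 1% DMSO), then ATP plus 33P-ATP was added to 10 μM final. After 120 min at room temperature, reactions were spotted on P81 filters and washed; IC50 values came from curve fits.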
# [5] = target: CLK3 (Homo sapiens (Human), UniProt P49761); assay: Inhibition of CLK3 kinase activity evaluated at Nanosyn (ADP-Glo); assay type: biochemical; settings: ADP-Glo luminescence
# CLK3, sequence (P49761 whole entry): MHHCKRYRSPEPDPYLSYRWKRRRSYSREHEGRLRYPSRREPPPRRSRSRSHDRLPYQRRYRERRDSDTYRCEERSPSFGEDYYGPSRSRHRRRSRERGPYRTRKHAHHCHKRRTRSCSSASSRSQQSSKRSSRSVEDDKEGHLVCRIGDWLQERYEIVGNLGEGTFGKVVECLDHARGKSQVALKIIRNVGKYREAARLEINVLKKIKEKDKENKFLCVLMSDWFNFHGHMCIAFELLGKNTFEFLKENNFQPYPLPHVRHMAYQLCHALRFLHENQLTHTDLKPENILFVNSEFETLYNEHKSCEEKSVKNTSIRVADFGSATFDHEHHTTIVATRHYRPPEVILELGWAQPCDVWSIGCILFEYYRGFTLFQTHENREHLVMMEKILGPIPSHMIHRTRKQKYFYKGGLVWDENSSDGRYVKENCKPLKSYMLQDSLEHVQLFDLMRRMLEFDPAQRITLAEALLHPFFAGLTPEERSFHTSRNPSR
# Method in brief: as §1
# [6] = target: EGFR Δ746-750/C797S mutant (Homo sapiens (Human), UniProt P00533, C797S/DEL746-750); assay: HotSpot radiometric kinase assay, EGFR Δ746-750/C797S mutant; assay type: biochemical; settings: 10 μM ATP
# Method in brief: as §2
# [7] = target: ALK (Homo sapiens (Human), UniProt Q9UM73); assay: HotSpot radiometric kinase assay, inhibition of ALK kinase activity; assay type: biochemical; settings: 10 μM ATP
# Description: Briefly, specific kinase/substrate pairs along with required cofactors were prepared in reaction buffer; 20 mM Hepes pH 7.5, 10 mM […], 1 mM EGTA, 0.02% Brij35, 0.02 mg/ml BSA, 0.1 mM Na3VO4, 2 mM DTT, 1% DMSO. Compounds were delivered into the reaction, followed […] later by addition of a mixture of ATP (Sigma, St. Louis MO) and ^33P ATP (Perkin Elmer, Waltham MA) to a final concentration of 10 μM. Reactions were carried out at room temperature for 120 min, followed by spotting of the reactions onto P81 ion exchange filter paper (Whatman Inc., Piscataway, NJ). Unbound phosphate was removed by extensive washing of filters in 0.75% phosphoric acid. […] IC50 values and curve fits were obtained using Prism (GraphPad Software).
# [8] = target: EGFR L858R/T790M mutant (Homo sapiens (Human), UniProt P00533, L858R/T790M); assay: HotSpot radiometric kinase assay, EGFR L858R/T790M mutant; assay type: biochemical; settings: 10 μM ATP
# EGFR L858R/T790M mutant, sequence (P00533 25-1210 T790M/L858R): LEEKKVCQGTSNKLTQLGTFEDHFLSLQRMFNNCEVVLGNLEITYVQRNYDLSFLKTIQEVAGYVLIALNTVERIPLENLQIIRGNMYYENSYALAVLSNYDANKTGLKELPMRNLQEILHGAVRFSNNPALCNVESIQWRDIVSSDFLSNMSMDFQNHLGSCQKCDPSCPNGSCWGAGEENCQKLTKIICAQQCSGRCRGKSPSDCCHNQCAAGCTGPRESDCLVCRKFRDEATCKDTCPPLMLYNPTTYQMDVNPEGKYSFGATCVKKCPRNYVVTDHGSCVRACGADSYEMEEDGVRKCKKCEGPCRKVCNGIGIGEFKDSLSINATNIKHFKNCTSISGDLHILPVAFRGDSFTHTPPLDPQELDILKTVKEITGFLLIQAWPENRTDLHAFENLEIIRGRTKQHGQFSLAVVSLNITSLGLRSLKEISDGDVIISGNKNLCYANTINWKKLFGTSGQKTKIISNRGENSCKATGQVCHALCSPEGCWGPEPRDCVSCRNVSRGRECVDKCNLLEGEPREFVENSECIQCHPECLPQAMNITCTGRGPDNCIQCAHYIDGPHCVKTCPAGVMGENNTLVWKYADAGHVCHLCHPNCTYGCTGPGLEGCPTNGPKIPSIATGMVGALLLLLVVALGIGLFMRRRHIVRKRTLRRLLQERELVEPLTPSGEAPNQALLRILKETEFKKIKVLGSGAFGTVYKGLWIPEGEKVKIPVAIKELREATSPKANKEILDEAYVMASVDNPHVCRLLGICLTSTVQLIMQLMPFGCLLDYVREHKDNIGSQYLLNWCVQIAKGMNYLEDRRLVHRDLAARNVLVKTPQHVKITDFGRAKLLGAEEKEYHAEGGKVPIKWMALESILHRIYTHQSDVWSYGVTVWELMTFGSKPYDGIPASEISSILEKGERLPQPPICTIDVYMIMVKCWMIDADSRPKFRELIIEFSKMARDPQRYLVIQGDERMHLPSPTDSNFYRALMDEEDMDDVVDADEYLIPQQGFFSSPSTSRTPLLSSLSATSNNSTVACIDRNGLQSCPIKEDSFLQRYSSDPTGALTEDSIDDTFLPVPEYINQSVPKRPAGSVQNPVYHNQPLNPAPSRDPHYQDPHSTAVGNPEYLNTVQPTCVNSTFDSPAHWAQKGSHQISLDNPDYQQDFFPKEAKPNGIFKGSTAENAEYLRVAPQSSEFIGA
# Method in brief: as §2
# [9] = target: CLK1 (Homo sapiens (Human), UniProt P49759); assay: Inhibition of CLK1 kinase activity evaluated at Nanosyn (ADP-Glo); assay type: biochemical; settings: ADP-Glo luminescence
# CLK1, sequence (P49759 whole entry): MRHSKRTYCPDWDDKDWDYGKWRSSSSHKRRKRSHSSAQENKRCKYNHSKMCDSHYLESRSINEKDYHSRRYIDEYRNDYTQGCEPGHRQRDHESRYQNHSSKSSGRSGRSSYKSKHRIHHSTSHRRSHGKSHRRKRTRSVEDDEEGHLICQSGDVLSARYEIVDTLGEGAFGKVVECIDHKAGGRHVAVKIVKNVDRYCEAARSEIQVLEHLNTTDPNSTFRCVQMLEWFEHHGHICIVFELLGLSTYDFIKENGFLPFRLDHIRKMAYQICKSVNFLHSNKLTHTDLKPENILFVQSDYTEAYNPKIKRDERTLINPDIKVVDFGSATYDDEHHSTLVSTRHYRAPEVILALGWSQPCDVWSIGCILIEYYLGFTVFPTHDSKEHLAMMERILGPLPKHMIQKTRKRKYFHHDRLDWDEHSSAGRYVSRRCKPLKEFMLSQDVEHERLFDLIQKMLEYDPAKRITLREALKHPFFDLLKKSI
# Method in brief: as §1
# [10] = target: EGFR L858R mutant (Homo sapiens (Human), UniProt P00533, L858R); assay: HotSpot radiometric kinase assay, EGFR L858R mutant; assay type: biochemical; settings: 10 μM ATP
# Method in brief: as §2
# [11] = target: EGFR (D770_N771insNPG) (Homo sapiens (Human), UniProt P00533, INS770NPG); assay: HotSpot radiometric kinase assay, EGFR (D770_N771insNPG); assay type: biochemical; settings: 10 μM ATP, read-out: EGFR (Δ770_N771insNPG) IC50
# EGFR (D770_N771insNPG), sequence (P00533 other isoform, or with tags, fused parts or gaps del 1-668/ins NPG behind 770 limits assumed): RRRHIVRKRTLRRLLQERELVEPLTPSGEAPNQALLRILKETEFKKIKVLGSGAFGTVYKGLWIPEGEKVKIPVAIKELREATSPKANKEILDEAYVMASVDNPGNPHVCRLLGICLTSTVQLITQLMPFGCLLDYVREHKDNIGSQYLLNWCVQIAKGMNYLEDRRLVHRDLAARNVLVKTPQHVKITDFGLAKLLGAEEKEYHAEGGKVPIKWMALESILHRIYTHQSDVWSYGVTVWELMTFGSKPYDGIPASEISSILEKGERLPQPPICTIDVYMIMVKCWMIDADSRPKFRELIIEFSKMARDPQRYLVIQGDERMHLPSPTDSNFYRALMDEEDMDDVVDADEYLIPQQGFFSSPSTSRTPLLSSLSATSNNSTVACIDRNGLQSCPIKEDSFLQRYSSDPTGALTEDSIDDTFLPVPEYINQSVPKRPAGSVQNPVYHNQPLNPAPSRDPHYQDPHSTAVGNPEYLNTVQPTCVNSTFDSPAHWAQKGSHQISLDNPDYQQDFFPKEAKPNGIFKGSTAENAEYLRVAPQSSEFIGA
# Method in brief: as §2
# [12] = target: EGFR WT (Homo sapiens (Human), UniProt P00533); assay: HotSpot radiometric kinase assay (Reaction Biology), EGFR WT; assay type: biochemical; settings: 10 μM ATP
# Method in brief: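 IC50 values derive from curve fits of 33P incorporation measured by P81 filter binding. ATP was 10 μM final; incubation lasted 120 min at room temperature after ~20 min compound preincubation.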
# [13] = target: EGFR Δ746-750 mutant (Homo sapiens (Human), UniProt P00533, DEL746-750); assay: HotSpot radiometric kinase assay, EGFR Δ746-750 mutant; assay type: biochemical; settings: 10 μM ATP
# EGFR Δ746-750 mutant, sequence (P00533 other isoform, or with tags, fused parts or gaps del 1-668/del 746-750 limits assumed): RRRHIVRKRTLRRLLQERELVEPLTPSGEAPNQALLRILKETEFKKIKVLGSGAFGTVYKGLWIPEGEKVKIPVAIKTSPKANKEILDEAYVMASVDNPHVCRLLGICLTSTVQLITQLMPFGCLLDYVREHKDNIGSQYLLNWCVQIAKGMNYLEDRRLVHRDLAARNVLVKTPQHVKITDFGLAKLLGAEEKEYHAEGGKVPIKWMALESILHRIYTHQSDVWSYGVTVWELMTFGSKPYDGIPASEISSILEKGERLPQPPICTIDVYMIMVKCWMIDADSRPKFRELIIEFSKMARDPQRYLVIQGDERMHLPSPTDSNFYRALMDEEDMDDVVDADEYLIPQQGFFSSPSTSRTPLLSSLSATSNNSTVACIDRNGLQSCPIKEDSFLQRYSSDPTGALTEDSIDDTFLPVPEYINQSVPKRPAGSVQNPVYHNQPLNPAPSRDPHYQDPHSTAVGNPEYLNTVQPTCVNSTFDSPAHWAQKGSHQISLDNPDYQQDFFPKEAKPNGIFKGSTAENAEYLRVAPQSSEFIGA
# Method in brief: as §2
# [14] = target: CLK4 (Homo sapiens (Human), UniProt Q9HAZ1); assay: Inhibition of CLK4 kinase activity evaluated at Nanosyn (ADP-Glo); assay type: biochemical; settings: ADP-Glo luminescence
# Method in brief: as §1
# [15] = cc_pd bond; 15-membered ring; Pd(dppf)Cl2/Cs2CO3; 1,4-dioxane/H2O 5:1; 127.0 mM; 90.0 °C
compound,measurement,setting,value
CCOc1nn(CCO[Si](C)(C)C(C)(C)C)c2c1C=Cc1nn(C3CCCCO3)c3ccc(cc13)-c1cnn(C)c1O[C@H](CC)CN(C)C2 (stereo partly drawn),"ring closure, crude yield",[1],62%
COC(=O)[C@H]1CN(C)Cc2c(c(OC(C)C)nn2CCO[Si](C)(C)C(C)(C)C)/C=C/c2nn(C3CCCCO3)c3ccc(cc23)-c2cnn(C)c2O1 (stereo partly drawn),"ring closure, isolated yield","[2]; from C=Cc1nn(C2CCCCO2)c2ccc(-c3cnn(C)c3O[C@H](CN(C)Cc3c(I)c(OC(C)C)nn3CCO[Si](C)(C)C(C)(C)C)C(=O)OC)cc12, 15-membered ring, Pd(OAc)2/TBAC/TEA, DMF, 11.6 mM, 100.0 °C, 2.0 h",47%
CCOC(=O)c1nn(C)c2c1-c1ccc3c(c1)c(nn3C1CCCCO1)/C=C/c1c(OCC)nn(CCO[Si](C)(C)C(C)(C)C)c1CN(CC)C[C@H](C)O2 (stereo partly drawn),"ring closure, isolated yield","[2]; from ethyl 5-[(1S)-2-[[2-[2-[tert-butyl(dimethyl)silyl]oxyethyl]-5-ethoxy-4-iodo-pyrazol-3-yl]methyl-ethyl-amino]-1-methyl-ethoxy]-1-methyl-4-(1-tetrahydropyran-2-yl-3-vinyl-indazol-5-yl) pyrazole-3-carboxylate, 15-membered ring, Pd(OAc)2/TBAC/NaHCO3, DMF, 67.4 mM, 120.0 °C",77%
"CC(C)Oc1nn(CCO)c2c1/C=C/c1n[nH]c3cc(F)c(cc13)-c1cnn(C)c1O[C@@H](C)CN(C)C2 [Example 181, 2-{(10S,17E)-19-fluoro-8,10,12-trimethyl-16-[(propan-2-yl)oxy]-2,8,10,11,12,13-hexahydro-14H-3,5-ethenotripyrazolo[3,4-f:3′,4′-j:4″,3″- n][1,4]oxazacyclopentadecin-14-yl}ethan-1-ol]",IC50,[3],0.68 nM
same,IC50,[4],2.5 nM
same,IC50,[5],56.2 nM
same,IC50,[6],1.68 nM
same,IC50,[7],1.05 nM
same,IC50,[8],1.29 nM
same,IC50,[9],0.87 nM
same,IC50,[10],1.8 nM
same,IC50,[11],84.4 nM
same,IC50,[12],12.5 nM
same,IC50,[13],2.23 nM
same,IC50,[14],2.6 nM
"CCOc1nn([C@@H](C)CO)c2c1/C=C/c1n[nH]c3cc(F)c(cc13)-c1cnn(C)c1O[C@@H](C)CN(C)C2 [Example 214, (2S)-2-[(10S,17E)-16-ethoxy-19-fluoro-8,10,12-trimethyl-2,8,10,11,12,13-hexahydro-14H-3,5-ethenotripyrazolo[3,4-f:3′,4′-j:4″,3″- n][1,4]oxazacyclopentadecin-14-yl]propan-1-ol]",IC50,[3],2.51 nM
same,IC50,[4],0.17 nM
same,IC50,[5],592 nM
same,IC50,[6],0.48 nM
same,IC50,[7],2.47 nM
same,IC50,[8],0.2 nM
same,IC50,[9],2.37 nM
same,IC50,[10],0.35 nM
same,IC50,[11],8.31 nM
same,IC50,[12],0.77 nM
same,IC50,[13],0.22 nM
same,IC50,[14],7.25 nM
Cc1c2c(nn1C)C=Cc1nn(C3CCCCO3)c3ccc(cc13)-c1cnn(C)c1O[C@@H](C)CN(C)C2 (stereo partly drawn),"ring closure, isolated yield","[2]; from Cc1c(CN(C)C[C@H](C)Oc2c(-c3ccc4c(c3)c(/C=C/B3OC(C)(C)C(C)(C)O3)nn4C3CCCCO3)cnn2C)c(I)nn1C, 15-membered ring, BrettPhos Pd G4/Na2CO3 aq, dioxane/H2O, 24.8 mM, 80.0 °C, 2.0 h",58%
Cc1n[nH]c2c1/C=C/c1nn(C3CCCCO3)c3ccc(cc13)-c1cnn(C)c1CN(C(=O)OC(C)(C)C)CCO2 (stereo not drawn),"ring closure, isolated yield","[2]; from tert-butyl N-[2-[(4-iodo-3-methyl-1H-pyrazol-5-yl)oxy]ethyl]-N-[[2-methyl-4-[1-tetrahydropyran-2-yl-3-[(E)-2-(4,4,5,5-tetramethyl-1,3,2-dioxaborolan-2-yl)vinyl]indazol-5-yl]pyrazol-3-yl]methylicarbamate, 15-membered ring",54%
Cc1nn(C)c2c1/C=C/c1nn(C3CCCCO3)c3ccc(cc13)-c1cnn(C)c1CN(C)CC(C)O2 (stereo not drawn),"ring closure, isolated yield","[2]; from Cc1nn(C)c(OC(C)CN(C)Cc2c(-c3ccc4c(c3)c(/C=C/B3OC(C)(C)C(C)(C)O3)nn4C3CCCCO3)cnn2C)c1I, 15-membered ring, XPhos Pd G4/K3PO4, DMA, 66.5 mM, 80.0 °C, 2.0 h",24%
CCOc1nn(CCO)c2c1/C=C/c1nn(C3CCCCO3)c3cc(F)c(cc13)-c1cnn(C)c1O[C@@H]1CCCN(C2)C1 (stereo partly drawn),"ring closure, isolated yield","[2]; from CCOc1nn(CCO)c(CN2CCC[C@@H](Oc3c(-c4cc5c(/C=C/B6OC(C)(C)C(C)(C)O6)nn(C6CCCCO6)c5cc4F)cnn3C)C2)c1I, 15-membered ring, CataCXium A Pd G3/K3PO4, dioxane, 112.0 mM, 90.0 °C, 2.0 h",42%
CCOc1nn([C@@H](C)CO)c2c1/C=C/c1n[nH]c3cc(F)c(cc13)-c1cnn(C)c1O[C@@H](C)CN(CC)C2 [Example 215],IC50,[3],2.1 nM
same,IC50,[4],0.89 nM
same,IC50,[5],964 nM
same,IC50,[6],1.93 nM
same,IC50,[7],2.58 nM
same,IC50,[8],1.49 nM
same,IC50,[9],3.33 nM
same,IC50,[10],1.7 nM
same,IC50,[11],3.75 nM
same,IC50,[12],1.71 nM
same,IC50,[13],0.69 nM
same,IC50,[14],9.08 nM
Cn1ncc2c1OCCN1CC[C@@H](Oc3ccccc3/C=C/c3nn(C4CCCCO4)c4ccc-2cc34)C1=O (stereo partly drawn),"ring closure, isolated yield","[2]; from Cn1ncc(-c2ccc3c(c2)c(/C=C/B2OC(C)(C)C(C)(C)O2)nn3C2CCCCO2)c1OCCN1CC[C@@H](Oc2ccccc2I)C1=O, 17-membered ring, XPhos Pd G4/K3PO4, DMA, 25.0 mM, 80.0 °C, 2.0 h",36%
CCOc1nn(CCO[Si](C)(C)C(C)(C)C)c2c1/C=C/c1nn(C3CCCCO3)c3cc(F)c(cc13)-c1c(C)nn(C)c1O[C@@H](C)CN(C(C)C)C2 (stereo partly drawn),"ring closure, isolated yield","[2]; from C=Cc1nn(C2CCCCO2)c2cc(F)c(-c3c(C)nn(C)c3O[C@@H](C)CN(Cc3c(I)c(OCC)nn3CCO[Si](C)(C)C(C)(C)C)C(C)C)cc12, 15-membered ring, Pd(OAc)2/TBAC/NaHCO3, DMF, 96.7 mM, 140.0 °C, 1.0 h",84%
"2-[(17E)-5,15-dimethyl-21-tetrahydropyran-2-yl-7,10-dioxa-4,5,13,14,20,21-hexazapentacyclo[17.5.2.0^2,6.0^12,160.0^22,26]hexacosa-1(25),2(6),3,12(16),14,17,19,22(26),23-nonaen-13-yl]acetic acid","ring closure, yield after HPLC",[15],30%
Cn1ncc2c1OCCN1CC[C@@H](Oc3cc(Cl)ccc3C=Cc3nn(C4CCCCO4)c4ccc-2cc34)C1=O (stereo partly drawn),"ring closure, isolated yield","[2]; from Cn1ncc(-c2ccc3c(c2)c(/C=C/B2OC(C)(C)C(C)(C)O2)nn3C2CCCCO2)c1OCCN1CC[C@@H](Oc2cc(Br)ccc2I)C1=O, 17-membered ring, Pd(dppf)Cl2.CH2Cl2/K2CO3, dioxane/H2O 5:1, 19.4 mM, 90.0 °C, 2.0 h",38%
"CCN1Cc2c(c(OC(C)C)nn2CC(N)=O)/C=C/c2n[nH]c3ccc(cc23)-c2cnn(C)c2O[C@@H](C)C1 [Example 232, 2-{(10S,17E)-12-ethyl-8,10-dimethyl-16-[(propan-2-yl)oxy]-2,8,10,11,12,13-hexahydro-14H-3,5-ethenotripyrazolo[3,4-f:3′,4′-j:4″,3″-n][1,4]oxazacyclopentadecin-14-yl}acetamide]",IC50,[3],0.45 nM
same,IC50,[4],0.11 nM
same,IC50,[5],42 nM
same,IC50,[6],0.55 nM
same,IC50,[7],0.9 nM
same,IC50,[8],0.13 nM
same,IC50,[9],0.77 nM
same,IC50,[10],0.22 nM
same,IC50,[11],1.39 nM
same,IC50,[12],0.41 nM
same,IC50,[13],0.08 nM
same,IC50,[14],1.49 nM
Cc1nn(C)c2c1C=Cc1nn(C3CCCCO3)c3ccc(cc13)-c1cnn(C)c1OCCOC2 (stereo not drawn),"ring closure, isolated yield","[2]; from Cc1nn(C)c(COCCOc2c(-c3ccc4c(c3)c(/C=C/B3OC(C)(C)C(C)(C)O3)nn4C3CCCCO3)cnn2C)c1I, 15-membered ring, Pd XPhos G4/K3PO4, DMA/H2O, 55.3 mM, 90.0 °C, 3.0 h",14.2%
